# pIC50: −log10 of the molar value.
# Assays:
# [1] = test system: PBMC of healthy individuals; assay: Viability of healthy donor cells in suspension culture; format: cell-based; settings: Homo sapiens, 48 h, read-out: IC50 HD Suspension
# Excerpt: (§1) Hematological cell lines were acquired from the Leibniz Institute DSMZ-German Collection of Microorganisms and Cell Cultures (www.dsmz.de). Sixteen patients diagnosed with chronic lymphocytic leukemia at the Division of Hematology and Hemostaseology at the Vienna General Hospital and four healthy donors were included in the study. All participants signed informed consent according to the Declaration of Helsinki (Ethics Committee Nr: EK 1722/2012). Peripheral blood mononuclear cells (PBMC) were isolated using standardized Ficoll-Hypaque gradient centrifugation (Seromed, Berlin, Germany) and stored in liquid nitrogen until use. […]
# (§2) Primary cells were incubated at a density of 300,000 cells per well in 96-well plates in a total volume of 100 μl of Gibco RPMI 1640+L-glutamine (PAA Laboratories) supplemented with 20% FBS gold with increasing concentrations of compounds for 48 h. […] Viability was measured using CellTiter-Blue Cell Viability Assay (Promega, Madison, Wis., USA) following the instructions of the manufacturers. Experiments with primary cells were done in triplicates, IC50 values were calculated from the mean values of all samples used in the various experiments using GraphPad Prism 5 software. […]
# [2] = test system: primary cells from CLL patients; assay: Combination treatment of CLL primary cells with compound 15 and a further anticancer agent; format: cell-based, human
# Experimental: Peripheral blood mononuclear cells (PBMCs) of CLL patients were incubated in increasing concentrations of one of the above-mentioned anticancer agents alone or increasing anticancer agent concentrations plus compound 15 in two different concentrations under standard conditions for 48 h before viability was determined (CellTiterBlue, Promega). Primary cells from 5 (ABT199) or 6 patients (CAL101, PCI32765) were included.
# SU-DHL6 = assay: Viability test on SU-DHL6 cells; format: cell-based, human
# Experimental: (§3) All experiments with hematological cell lines were done using phenol red-free RPMI 1640+L-glutamine (PAA Laboratories) supplemented with 1% PenStrep and 10% FBS gold, except experiments with OCI-Ly7 which were carried out in Gibco IMEM+GlutaMAX and 25 mM HEPES containing 20% FBS gold and 1% PenStrep. Cells were incubated in triplicates with increasing concentrations of the compounds for 48 h, changes in viability were determined using the cell proliferation and cytotoxicity assays EZ4U (Biomedica Group, Austria) and CellTiter-Blue Cell Viability Assay (Promega, Madison, Wis., USA) following instructions of the manufacturers. IC50 values were calculated from two independent experiments using GraphPad Prism 5 software.
# Hematologic malignancies are highly heterogeneous in their biology and behavior. This and the fact that some patient groups are resistant to therapy underlines the urgent need for new therapeutic drugs. Compound 15 has therefore been tested on other cell lines representing a variety of hematologic neoplasms: two T-cell acute leukemia cell lines (CCRF, Jurkat), two myeloid leukemia cell lines (HL60, K562), and two additional B-cell lines (SU-DHL6, SU-DHL9). Viability was assessed as described in the methods section above. […] An exception was the chronic myeloid leukemia line K562. […]
# [3] = test system: PBMC of chronic lymphocytic leukemia (CLL) patients; assay: Viability of primary CLL cells in suspension culture; format: cell-based; settings: Homo sapiens, CLL cell, 48 h
# Excerpt: as §1, §2
# HL60 = assay: Viability test on HL60 cells; format: cell-based, human
# Experimental: (§4) JURKAT and CCRF-CEM (T-cell acute lymphoblastic leukemia), HL60 and K562 representing acute and chronic myeloid leukemia, respectively, the chronic lymphocytic leukemia cell line MEC-1, and the diffuse large B-cell lymphoma cell line U-2940 were cultured in Gibco RPMI 1640+GlutaMAX (Life Technologies, Carlsbad, Calif., USA) supplemented with 10% fetal bovine serum gold (FBS gold; PAA Laboratories, Pasching, Austria) and 1% PenStrep (100 U/ml penicillin and 100 μg/ml streptomycin; PAA Laboratories), and maintained at 37° C. in humidified atmosphere with 5% CO2. […]
# as §3, with “software. […]” for “software.”
# K562 = assay: Viability test on K562 cells; format: cell-based, human; settings: already at low concentrations, no further increase of toxicity at increasing concentrations
# Experimental: as §4
# as §3, with “software. […]” for “software.”
# CCRF = assay: Viability test on CCRF cells; format: cell-based, human
# Experimental: as §4
# as §3, with “software. […]” for “software.”
smiles,measurement,setting,value
"CCOc1ccccc1C(=O)/C=C/c1cc2ccccc2[nH]1 [Compound 15, 1-(2-Ethoxyphenyl)-3-(1H-indole-2-yl)-2-propen-1-one]",pIC50,[1],4.87
same,effect of adding compound 15 to ABT199 on cytotoxicity,"[2]; combination with ABT199, N=5, 48 h",synergistic effect
same,effect of adding compound 15 to CAL101 on cytotoxicity,"[2]; combination with CAL101 (idelalisib), N=6, 48 h",synergistic effect
same,effect of adding compound 15 to PCI32765 on cytotoxicity,"[2]; combination with PCI32765 (ibrutinib), N=6, 48 h",synergistic effect
same,pIC50,"SU-DHL6; Homo sapiens, SU-DHL-6, B-cell lymphoma, nd = no significant cytotoxic activity up to 100 μM",7.22
same,"viability, % of control","SU-DHL6; SU-DHL6, at concentrations <1 μM",less than 30 % of control
same,pIC50,[3],5.93
same,"viability, % of control","HL60; HL60, at concentrations <1 μM",less than 30 % of control
same,pIC50,"HL60; Homo sapiens, HL-60, myeloid leukemia, nd = no significant cytotoxic activity up to 100 μM",7.70
same,viability reduced down to,K562,60%
same,melting point,,124 to 126 °C
same,"viability, % of control","CCRF; CCRF, at concentrations <1 μM",less than 30 % of control
same,pIC50,"CCRF; Homo sapiens, T-cell acute leukemia, nd = no significant cytotoxic activity up to 100 μM",7.52
